The source of these data is patent publication US20250127906A1, “SMALL-MOLECULE DEGRADERS OF CDK8 AND CDK19” (University of South Carolina, priority 2021, published 2025).

For one test, the system named is MV4-11 cells. Description: Long-term growth of MV4-11 cells under continuous treatment. The settings on record: MV4-11, 300 nM continuous. Format: cell-based, human. As for the experimental part: (§1) The anti-proliferative effects of a PROTAC and a kinase inhibitor were compared in leukemia cell lines. In the long-term treatment experiment shown in FIG. 11A, Jurkat cells (0.1 million cells) were continuously treated with vehicle control (0.1% DMSO), 300 nM BI-1347 or 300 nM IA7886 for 53 days (each condition in biological triplicates). Every 7-8 days, live cells were counted using BioRAD TC20 Automated Cell Counter with trypan blue staining: 0.1 million live cells were passaged to a new T25 flask to propagate under the same treatment conditions. The survival fraction was calculated by dividing the accumulated number of drug-treated cells with the accumulated number of vehicle-treated cells. […] This sustained inhibition property of PROTAC was also observed in MV4-11, a leukemia cell line highly sensitive to CDK8/19 kinase inhibitors.

Another test deals with SK-MM-2 cells. Description: SK-MM-2 multiple myeloma cell growth over 20 days continuous treatment. Format: cell-based. Particulars: BI1347 200 nM, Senexin C 1 μM, IA7886 200 nM, IA7843 1 μM. As for the experimental part:
The following CDK8/19 kinase inhibitors were tested for their effects on MM cell lines over 20 days continuous treatment: CDK8/19 kinase inhibitors BI1347 (200 nM) and Senexin C (1 μM), BI1347-derived PROTAC IA7886 (200 nM) and Senexin C-derived PROTAC IA7843 (1 μM). 1-4 million cells were treated with vehicle control (0.1% DMSO), or CDK8/19 kinase inhibitors or PROTACs for 20 days. Every 4 days, cells were counted using BioRAD TC20 Automated Cell Counter with trypan blue staining, and the same number of cells were passaged to a new T25 flask to propagate under the same treatment conditions.

The next test concerns CDK8/19-regulated genes. Description: QPCR of CDK8/19-regulated genes in HEK-293 wild-type and CDK8/19 double-knockout cells. Format: cell-based, human. The settings on record: for effect on expression of CDK8/19-regulated genes: 200 nM, 3-day treatment. Here is the method:
CDK8/19 act as transcriptional regulators, and therefore we tested the effects of 3-day treatment with 200 nM PROTAC IA7886 along with 200 nM CDK8/19 kinase inhibitor BI-1347 on a series of CDK8/19-regulated genes, using QPCR.
We have also compared the stability of transcriptional changes induced by a PROTAC and by a kinase inhibitor. In the experiment shown in FIG. 10A, HEK-293 cells were treated with 200 nM of BI-1347 or IA7886 for 3 days, and then the inhibitors were washed off and the restoration of transcriptional changes was monitored 24 hrs and 48 hrs after wash-off.

In another test the test system is KMS-12-BM cells. As to the kind of experiment: Concentration dependence of KMS-12-BM growth inhibition (CCK-8 assay). Format: cell-based. The settings on record: Homo sapiens, 96 h, over 4 days. As for the experimental part:
Concentration dependence of KMS-12-BM growth inhibition over 4 days was determined for BI-1347 CDK8/19 kinase inhibitor and IA7886 PROTAC using CCK-8 assay (FIG. 13B).
On the technique in general: Formazan colour is commonly taken as a measure of viable cells.

For test [1], the system named is Jurkat cells. As to the kind of experiment: Long-term growth of Jurkat cells under continuous treatment. Format: cell-based, human. The settings on record: 300 nM continuous. Here is the method: as §1
In test [2] the test system is Jurkat cells. As to the kind of experiment: Wash-off growth study in Jurkat cells. Format: cell-based, human. Particulars: pre-treated 200 nM for 8 days, then drug-free vs drug-containing media for 8 days. As for the experimental part:
We also compared the stability of short-term growth inhibition induced by a PROTAC and a kinase inhibitor in a wash-off study in Jurkat cells. In the experiment shown in FIG. 11C, Jurkat cells were pre-treated with 200 nM BI-1347 or IA7886 for 8 days before removal of drug-containing media and further cultured in either drug-containing (200 nM) or drug-free media for 8 days before counting cell numbers. Removal of BI-1347 led to 7.1 fold increase of the cell number while removal of IA7886 increased the cell number only 1.8 fold (FIG. 11C).

For another test, the target named is CDK8 (Homo sapiens, UniProt P49336). Description: CDK8 degradation in HEK-293 cells (Western blot, normalized by GAPDH). Format: cell-based. The arrangement: endogenous in cells; host or cells: HEK-293. Particulars: HEK-293 cells. As for the experimental part:
Table 1 presents the structures of 35 different chimeras that have been synthesized, together with their effects (at 1 μM or 0.3 μM concentrations) on CDK8 degradation in HEK-293 cells. The synthesis schemes of all the compounds are described below. CDK8 degradation was measured by Western blot analysis of RIPA lysates of HEK-293cells treated with or without the test compound for 24 hours, using antibodies against CDK8 (Santa Cruz sc-1521) and housekeeping protein GAPDH (Santa Cruz sc-32233) (loading control) Protein bands on immunoblotted PVDF membranes were visualized with Western Lighting Plus ECL detection reagent (Perkin Elmer, Waltham, MA, USA) using ChemiDoc Touch™ (Bio-Rad). Image processing and densitometry analysis were performed using ImageLab software (Bio-Rad) to quantify the CDK8 protein levels (normalized by GAPDH) and evaluate the effects of compound treatment.
(§2) FIGS. 2F and 2G show the effects of different concentrations of potent Senexin C- and BI-1347-based PROTACs on CDK8 and CDK19 degradation in HEK-293cells. Based on these assays, we calculated DC50 values that correspond to PROTAC concentrations inducing degradation of CDK8 and CDK19 to the half of protein level in untreated cells. The corresponding CDK8 DC50 values were 46 nM for IA7843, 6.6 nM for IA7882 and 2.8 nM for IA7886, and CDK19 DC50 values were 1 μM for IA7843, 25 nM for IA7882 and 10 nM for IA7886.
For orientation: In western blotting, separated proteins are transferred to a membrane and probed.

Another test addresses CDK19 (Homo sapiens, UniProt Q9BWU1). As to the kind of experiment: CDK19 degradation in HEK-293 cells (Western blot). Format: cell-based. The arrangement: PROTACs on CDK8 and CDK19 degradation in HEK-293cells; endogenous in cells; host or cells: HEK-293. The settings on record: concentration degrading CDK19 to half of level in untreated cells.
From the text: Furthermore, the degradation of both CDK8 and CDK19 by the PROTACs is also seen to decrease the levels of their binding partner cyclin C (CCNC) (FIG. 2B, D, E), which is known to be protected from proteolytic degradation by its interaction with CDK8 (Barette et al., 2001).
as §2

The test system of the next test is RPMI 8226 cells. As to the kind of experiment: Concentration dependence of RPMI 8226 growth inhibition. Format: cell-based. Particulars: RPMI 8226, 4-day growth inhibition.

Chain of CDK8 (P49336 whole entry): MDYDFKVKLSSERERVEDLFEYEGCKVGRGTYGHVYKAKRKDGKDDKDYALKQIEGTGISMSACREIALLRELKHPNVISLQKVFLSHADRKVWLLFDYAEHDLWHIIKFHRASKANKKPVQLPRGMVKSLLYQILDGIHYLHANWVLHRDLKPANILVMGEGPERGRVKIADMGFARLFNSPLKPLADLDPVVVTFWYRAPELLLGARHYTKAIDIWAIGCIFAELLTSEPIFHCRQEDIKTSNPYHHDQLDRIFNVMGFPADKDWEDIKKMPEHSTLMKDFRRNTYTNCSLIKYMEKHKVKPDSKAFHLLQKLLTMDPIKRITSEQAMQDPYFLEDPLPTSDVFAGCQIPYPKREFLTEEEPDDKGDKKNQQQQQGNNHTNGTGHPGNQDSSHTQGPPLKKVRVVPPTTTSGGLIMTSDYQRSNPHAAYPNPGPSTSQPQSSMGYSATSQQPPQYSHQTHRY
Chain of CDK8 (P24863 whole entry partner): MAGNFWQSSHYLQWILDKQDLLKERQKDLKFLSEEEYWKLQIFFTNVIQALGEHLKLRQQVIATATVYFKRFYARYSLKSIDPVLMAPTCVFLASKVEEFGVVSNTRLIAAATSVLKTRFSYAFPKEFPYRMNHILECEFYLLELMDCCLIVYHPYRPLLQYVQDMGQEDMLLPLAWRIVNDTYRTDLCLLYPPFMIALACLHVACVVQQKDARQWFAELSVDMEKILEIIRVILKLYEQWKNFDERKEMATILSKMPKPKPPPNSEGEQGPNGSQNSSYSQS
Chain of CDK19 (Q9BWU1 whole entry): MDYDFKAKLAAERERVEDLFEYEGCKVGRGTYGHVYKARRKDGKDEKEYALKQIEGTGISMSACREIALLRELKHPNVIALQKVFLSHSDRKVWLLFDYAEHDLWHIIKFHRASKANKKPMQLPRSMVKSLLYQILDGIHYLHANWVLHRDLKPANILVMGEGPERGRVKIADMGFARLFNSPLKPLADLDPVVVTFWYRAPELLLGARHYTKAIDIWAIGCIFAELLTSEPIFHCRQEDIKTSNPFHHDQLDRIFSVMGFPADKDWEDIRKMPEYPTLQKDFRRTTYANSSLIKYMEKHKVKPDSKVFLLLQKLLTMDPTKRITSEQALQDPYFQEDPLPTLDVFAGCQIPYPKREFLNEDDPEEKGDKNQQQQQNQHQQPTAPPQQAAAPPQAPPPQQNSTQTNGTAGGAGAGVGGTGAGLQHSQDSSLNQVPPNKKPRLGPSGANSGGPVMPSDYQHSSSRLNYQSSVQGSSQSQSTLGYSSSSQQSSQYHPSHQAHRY
Chain of CDK19 (P24863 whole entry partner): as the sequence (P24863 whole entry partner) above

A word on the IC50: it is the concentration needed to halve the response being measured. Low values mean inhibition by little substance, high ones a need for much substance. With `CN(C)C(=O)Cn1cc(-c2ccc(-c3cncc4ccccc34)cc2)cn1` [BI-1347, reference compound], the “growth inhibition over 60 days” value in the test on MV4-11 cells is “strongly inhibited MV4-11 cells for the first 4 passages (33 days) but after that the cells became fully resistant to the kinase inhibitor”. In the test on SK-MM-2 cells, the “growth inhibition over 20 days, order of efficacy” value is on record as “BI1347<IA7886<Senexin C<IA7843”. Also, the “effect on expression of CDK8/19-regulated genes” value in the test on CDK8/19-regulated genes (CDK8/19 double-knockout (dKO) 293 cells) is reported as “had no effect in dKO cells”; with CDK8/19-regulated genes (wild-type HEK-293 cells), “had similar effects on the expression of the tested genes”. For the same molecule, the “stability of transcriptional changes after wash-off” value with CDK8/19-regulated genes (HEK-293, 200 nM for 3 days, then 24 hrs and 48 hrs after wash-off) was “largely maintained 24 hrs after wash-off but mostly disappeared 48 hrs after wash-off”. This molecule had an IC50 in the test on KMS-12-BM cells above 1000 nM. For the same molecule, the “growth inhibition, first two passages (14 days)” value in the test on Jurkat cells [1] is “had a stronger growth inhibition effect than the PROTAC IA7886”. The “growth rates in later passages” value with Jurkat cells [1] (up to 53 days) is reported as “growth rates of BI-1347 treated cells were increasing”. Further, in the test with Jurkat cells [2], the “increase of the cell number upon removal of drug” value came to 7.1 fold.
For orientation: DC50 means the concentration giving 50% degradation. Take `N#Cc1ccc2nccc(NCCc3ccc4cc(C(=O)N5CCN(C(=O)CCCCCCCCCCNC(=O)CCCNc6cccc7c6C(=O)N(C6CCC(=O)NC6=O)C7=O)CC5)ccc4c3)c2c1` (stereo not shown) [IA7843]: the “% CDK8 remaining” value at CDK8 (24 hours, tested at 1 μM) was found to be 13%. The DC50 at CDK8 (concentration degrading CDK8 to half of level in untreated cells) is 46 nM; on CDK19, 1000 nM.
Molecule `CN(C)C(=O)c1ccc(N2CCCN(c3ccnc4sc(C(N)=O)c(N)c34)CC2)cc1` [SNX631-6, reference compound] came in with an IC50 with RPMI 8226 cells above 1000 nM.
